Results on four molecules are retold here after patent publication EP1013768A1, “Mutant epoxide hydrolases” (priority 1998, dated 2000).

Common to all, as to format: biochemical
The test system of assay [1] is epoxide hydrolase from Agrobacterium radiobacter AD1, Tyr215Phe mutant. The assay is described as follows: Stereoselective hydrolysis (kinetic resolution) of styrene oxides with Tyr215Phe mutant. To be noted: substrate 5 mM, Tris buffer 50 mM pH9, 30°C, 10% DMSO for meta- and para-chlorostyrene oxide, chiral GLC. The protocol: Site directed mutagenesis was done as described by Kunkel (Proc. Natl. Acad. Sci. U.S.A., 82, 488-492 (1985)) with uracil-containing single stranded plasmid pEH20 as template (Rink et al.). Tyr^215 was mutated to Phe with the primer 5'-[…]-3' (mutated codon underlined). In order to confirm the mutation, the whole gene was sequenced as described in Rink et al.
(§1) A screw-cap bottle containing 30 ml Tris buffer^1 (50 mM pH9) was incubated in a shaking waterbath at 30°C. Styrene oxides (SO) as indicated in table 3 were added to a final concentration of 5 mM. The reaction was started by the addition of the a purified enzyme solution of the Tyr215Phe mutant of the epoxide hydrolase from Agrobacterium radiobacter AD1. The kinetic resolution was monitored by periodically taking 1 ml samples (with a 1 ml syringe) from the closed screw-cap bottle. The samples were extracted with diethylether containing 20 mM mesitylene as an internal standard. Prior to analysis by chiral GLC the water was removed from the sample by passing it through a short column containing MgSO4. The enantiomeric excess (%ee) and the yield of the epoxides was determined with a Hewlett-Packard 5890 gas chromatograph equipped with a FID-detector, using a Chiraldex G-TA capillary column, of 50 m lenght and 0.25 mm inside diameter. The data from the chiral GLC are as follows: • styrene oxide, tr(S)=12.4 min and tr(R)=14.8 min at 110°C; • meta-chlorostyrene oxide, tr(S)=20.2 min and tr(R)= 31.1 min at 120°C; • para-chlorostyrene oxide, tr(S)=40.7 min and tr(R)= 43.0 min at 100°C. ^1 In case of meta-chlorostyrene oxide and para-chlorostyrene oxide the buffer also contained 10% DMSO

Assay [2] has as its system epoxide hydrolase from Agrobacterium radiobacter AD1, wild type, SEQ ID No. 1. The experiment in a line: Stereoselective hydrolysis (kinetic resolution) of styrene oxides, comparative experiment with wild type enzyme. The note with it: substrate 5 mM, Tris buffer 50 mM pH9, 30°C, 10% DMSO for meta- and para-chlorostyrene oxide, chiral GLC. The protocol: as §1
Example III was repeated using the corresponding wild type epoxide hydrolase for Agrobacterium radiobacter AD1.

Assay [3] concerns epoxide hydrolase from Agrobacterium radiobacter AD1, Tyr152Phe mutant. The assay is described as follows: Stereoselective hydrolysis (kinetic resolution) of racemic styrene oxide with Tyr152Phe mutant. The note with it: as Example III (5 mM, Tris buffer 50 mM pH9, 30°C).

Regarding `O=[N+]([O-])c1ccc(C2CO2)cc1` (racemic) [P-NO2-SO], the figures for the E-value in assay [1] and in assay [2] were over 200 and 100, respectively.
As to `c1ccc(C2CO2)cc1` (racemic) [SO, styrene oxide], the values for the E-value in assay [1], in assay [3] and in assay [2] were 30, at least 40 and 16, respectively.
Consider `Clc1cccc(C2CO2)c1` (stereo not drawn) [M-Cl-SO, meta-chlorostyrene oxide], for which the E-value in assay [1] was found to be 13; in assay [2], 6.5.
As to `Clc1ccc(C2CO2)cc1` (stereo not drawn) [P-Cl-SO, para-chlorostyrene oxide], the E-value is reported as 130 in assay [1] and 32 in assay [2].
